The values that follow come from patent publication US20210274789A1, “Antimicrobial Surface Treatment” (Kode Biotech Limited, priority 2018, published 2021).

Format in all cases: cell-based
Assay [1] deals with Staphylococcus aureus. In words: Growth on bandage substrate treated with crystal violet alone or with a construct, resazurin colour change. Set-up: key: No growth: dark blue (no growth); Reduced growth: purple (reduced growth); Growth: light red (growth). The method, then:
(§1) Swatches (1 cm diameter circular disks) were cut from the fabric portion of commercially available adhesive bandages (BAND-AID™ Quilt-Aid Technology, Johnson & Johnson). Volumes of 50 μL were dispended onto the surface of the swatches and the swatches allowed to air dry undisturbed at 80° C. The volumes consisted of dispersions or solutions in deionized water of 0.04% (w/v) crystal violet, 0.25 mM or 0.13 mM of the construct designated FSL-Se or the construct designated FSL-0, or water alone. A further volume of 100 μL of 0.04% (w/v) crystal violet in deionized water was dispensed onto the surface of the dried treated swatches and incubated undisturbed at room temperature for 10 minutes before rinsing as before with sterile deionized water.
(§2) Frozen stock cultures of bacterial isolates (Staphylococcus aureus, Staphylococcus epidermis, Escherichia coli or Pseudomonas aeruginosa) were streaked on Columbia sheep blood agar plates (Fort Richard Laboratories) and the plates incubated at 37° C. for 24 hours when separate colonies had developed. Two to three colonies were then transferred to a volume of 10 mL of 21 g/L Muller-Hinton (MH) broth, vortexed and the turbidity measured at 600 nm. The MH broth was diluted with a further volume so that the turbidity provided an optical density of 0.20 for the suspensions of Staphylococcus aureus and Staphylococcus epidermis and 0.08 for the suspensions of Escherichia coli and Pseudomonas aeruginosa. The diluted suspensions (around 10^8 cfu/mL) were serially diluted.
(§3) Individual treated swatches from each treatment group were placed at the base of separate wells in a 96-well cell culture plate. Volumes of 10 μL of serial dilutions of the suspensions of bacteria were dispensed onto the surface of the swatches (excluding the negative control). The inoculated swatches were then incubated undisturbed at room temperature for 10 minutes before dispensing into each well a volume of 50 μL of sterile deionized water and 150 μL of MH broth containing 0.02% resazurin sodium salt (Sigma-Aldrich).
(§4) The colour change (if any) observed in each well was observed after incubation of the plate for 24 hours at 37° C. Observations are recorded in Tables 1, 2, 3 and 4.
For orientation: Alamar Blue is a resazurin reagent that responds to reducing activity.

The test system of assay [2] is Pseudomonas aeruginosa. Described as above. Set-up: key: No growth: dark blue (no growth); Reduced growth: purple (reduced growth); Growth: light red (growth). The conditions noted are these: crystal violet alone. The protocol: as §1, §2, §3, §4
In assay [3] the test system is Escherichia coli. Described as above. Set-up: key: No growth: dark blue (no growth); Reduced growth: purple (reduced growth); Growth: light red (growth). The conditions noted are these: crystal violet alone. The protocol: as §1, §2, §3, §4
Assay [4] concerns Staphylococcus epidermis. In words: AgNP augmented antibacterial surface treatment of adhesive bandage swatches, resazurin. More on the design: key: Growth: growth (growth); Inhibition: inhibition of growth (inhibition); No growth: prevention of growth (no growth). The conditions noted are these: 37° C. for 24 hours, duplicate swatches. The protocol:
(§5) Preparation of negatively charged silver nanoparticles Negatively charged nanoparticles of silver (AgNPs) were prepared according to the following method. Quantities of 2 g glucose and 1 g polyvinylpyrrolidone (PVP) were dissolved in water and the resultant volume heated to 90° C. A quantity of 0.5 g of silver nitrate (AgNO3) was dissolved in a separate volume of 1 mL water and the two volumes then rapidly mixed. The mixed volume was maintained at a temperature of 90° C. for a period of time of one hour before cooling to room temperature. The AgNPs were collected by repeated (3 times) centrifugation at 14,000 rpm for a period of time of 60 minutes and resuspension in deionised filtered water (Milli-Q) to remove excess oxidation products, PVP and silver ion (Ag^+). The washed suspension of AgNPs was stored in the dark at 4° C. The AgNPs were characterised by […] dispersive spectroscopy (EDS) and UV-Vis absorbance scanning.
(§6) Swatches (5×5 mm squares) were cut from the fabric portion of commercially available adhesive bandages (BAND-AID™, Quilt-Aid Technology, Johnson & Johnson). A volume of 50 μL of a 0.13 mM dispersion of one of the following constructs was pipetted onto the surface of a swatch: FSL-biotin, FSL-0, FSL-HA17 kDa, FSL-Se and FSL-spm.
(§7) The swatches were air-dried at a temperature of 80° C. prior to washing (3 times) with sterile, filtered, deionised water (Milli-Q).
(§8) Controls were prepared without contacting the swatches with constructs or without washing following contacting the swatches with construct. Individual treated squares (including controls) were placed in the bottom of individual wells of a 96-well plate and inoculated with a volume of 10 μL of a serial dilution of a log phase culture in Mueller Hinton (MH) broth of one of the following bacteria: • Staphylococcus aureus • Staphylococcus epidermis • Escherichia coli • Pseudomonas aeruginosa
(§9) The inoculated swatches were then incubated for 10 minutes before dispensing into each well of the plate a volume of 50 μL of sterile, filtered, deionised water (Milli-Q) and 150 μL of MH broth containing 0.00266% (w/v) resazurin and incubating for a period of time of 24 hours at a temperature of 37° C. The observations of resulting growth (as indicated by a colour change from blue to red) from the estimated bacterial load (2.5×10^4 or 2.5×10^6 colony forming units (cfu)) for each treatment and species of bacterium are recorded in Tables 5 to 8.

Assay [5] has as its system Staphylococcus aureus. The assay is described as above. Set-up: key: Growth: growth (growth); Inhibition: inhibition of growth (inhibition); No growth: prevention of growth (no growth). The settings on record: 37° C. for 24 hours, duplicate swatches. The method, then:
as §5, §6, §7, §8, §9

Assay [6] relates to Pseudomonas aeruginosa. The assay is described as above. Set-up: key: Growth: growth (growth); Inhibition: inhibition of growth (inhibition); No growth: prevention of growth (no growth). The settings on record: 37° C. for 24 hours, duplicate swatches. The protocol:
as §5, §6, §7, §8, §9

The subject of assay [7] is Escherichia coli. Described as above. Set-up: key: Growth: growth (growth); Inhibition: inhibition of growth (inhibition); No growth: prevention of growth (no growth). The settings on record: 37° C. for 24 hours, duplicate swatches. The protocol: as §5, §6, §7, §8, §9
Assay [8] deals with Staphylococcus epidermis. Nature of the assay: Growth on bandage substrate treated with crystal violet alone or with a construct, resazurin colour change. More on the design: key: No growth: dark blue (no growth); Reduced growth: purple (reduced growth); Growth: light red (growth). The conditions noted are these: 0.25 mM construct in combination with crystal violet. The method, then:
as §1, §2, §3, §4

Setting [9] is: challenge 1.5 × 10^4 to 10^5 cfu.
The mark [10] stands for this setting: unwashed following application of the FSL construct, load 2.11 × 10^4 cfu.
Where [11] appears, read: unwashed following application of the FSL construct, load 2.11 × 10^6 cfu.
[12] abbreviates: washed following application of the FSL construct, load 2.11 × 10^4 cfu.
Where [13] appears, read: washed following application of the FSL construct, load 2.11 × 10^6 cfu.
Setting [14] is: unwashed following application of the FSL construct, load 2.53 × 10^4 cfu.
[15] abbreviates: unwashed following application of the FSL construct, load 2.53 × 10^6 cfu.
Setting [16] is: washed following application of the FSL construct, load 2.53 × 10^4 cfu.
[17] abbreviates: washed following application of the FSL construct, load 2.53 × 10^6 cfu.
[18] abbreviates: unwashed following application of the FSL construct, load 1.75 x 10^4 cfu.
Setting [19] is: unwashed following application of the FSL construct, load 1.75 × 10^6 cfu.
Setting [20] is: washed following application of the FSL construct, load 1.75 x 10^4 cfu.
[21] abbreviates: washed following application of the FSL construct, load 1.75 x 10^6 cfu.
The mark [22] stands for this setting: unwashed following application of the FSL construct, load 1.99 × 10^4 cfu.
[23] abbreviates: unwashed following application of the FSL construct, load 1.99 × 10^6 cfu.
Where [24] appears, read: washed following application of the FSL construct, load 1.99 × 10^4 cfu.
[25] abbreviates: washed following application of the FSL construct, load 1.99 × 10^6 cfu.

`CN(C)c1ccc(C(=C2C=CC(=[N+](C)C)C=C2)c2ccc(N(C)C)cc2)cc1.[Cl-]` [Crystal violet, N-[4-[bis[4-(dimethylamino)phenyl]methylene]-2,5-cyclohexadien-1-ylidene]-N-methyl-methanaminium chloride]: the “Growth monitored by colour change of resazurin containing MH broth” value (shortened to “Growth monitored by colour change”) is reported as “No growth” in the assay on Staphylococcus aureus [1] (crystal violet alone, challenge 500 to 1,000 cfu); “Growth” in the assay on Pseudomonas aeruginosa [2] (setting [9]); “Growth” in the assay with Pseudomonas aeruginosa [2] (challenge 5 × 10^3 to 10^4 cfu); “Growth” in the assay with Pseudomonas aeruginosa [2] (challenge 10^3 to 5 × 10^3 cfu); “Growth” in the assay on Pseudomonas aeruginosa [2] (challenge <500 cfu); “Growth” in the assay on Pseudomonas aeruginosa [2] (challenge >10^5 cfu). Further, the “Growth monitored by colour change” value with Escherichia coli [3] (setting [9]), with Escherichia coli [3] (challenge 5 × 10^3 to 10^4 cfu), with Escherichia coli [3] (challenge 500 to 1,000 cfu) and with Escherichia coli [3] (challenge >10^5 cfu) was “Growth” each time. The “Observations of growth, inhibition of growth or prevention of growth” value (“Observations of growth, inhibition … of growth” for short) in the assay with Staphylococcus epidermis [4] (setting [10]) is “Inhibition”; with Staphylococcus epidermis [4] (setting [11]), “Growth”; with Staphylococcus epidermis [4] (setting [12]), “Inhibition”; in the assay on Staphylococcus epidermis [4] (setting [13]), “Growth”; in the assay on Staphylococcus aureus [5] (setting [14]), “Growth”; in the assay on Staphylococcus aureus [5] (setting [15]), “Growth”. Moreover, the “Observations of growth, inhibition … of growth” value in the assay on Staphylococcus aureus [5] (setting [16]), in the assay on Staphylococcus aureus [5] (setting [17]), in the assay with Pseudomonas aeruginosa [6] (setting [18]), with Pseudomonas aeruginosa [6] (setting [19]), in the assay on Pseudomonas aeruginosa [6] (setting [20]) and with Pseudomonas aeruginosa [6] (setting [21]) was “Growth” in each case. The “Observations of growth, inhibition … of growth” value in the assay on Escherichia coli [7] (setting [22]), in the assay on Escherichia coli [7] (setting [23]), with Escherichia coli [7] (setting [24]) and in the assay on Escherichia coli [7] (setting [25]) was “Growth” in each case.

As to NCSeCH2CO-CMG(2)-Ad-DOPE [FSL-Se], the “Growth monitored by colour change” value in the assay on Staphylococcus epidermis [8] (challenge 10^3 to 5 × 10^3 cfu) is given as “No growth”; in the assay with Staphylococcus epidermis [8] (challenge 10^4 to 1.5 × 10^4 cfu), “No growth”; in the assay on Staphylococcus epidermis [8] (challenge >10^5 cfu), “No growth”; in the assay with Staphylococcus aureus [1] (0.25 mM construct in combination with crystal violet, challenge 1.5 × 10^4 to 10^5 cfu), “No growth”; in the assay on Staphylococcus aureus [1] (0.25 mM construct in combination with crystal violet, challenge 10^3 to 5 × 10^3 cfu), “No growth”; with Staphylococcus aureus [1] (0.25 mM construct in combination with crystal violet, challenge >10^5 cfu), “No growth”. Moreover, the “Observations of growth, inhibition … of growth” value in the assay on Staphylococcus epidermis [4] (setting [10]), with Staphylococcus epidermis [4] (setting [11]), with Staphylococcus epidermis [4] (setting [12]), in the assay on Staphylococcus epidermis [4] (setting [13]), in the assay with Staphylococcus aureus [5] (setting [14]) and with Staphylococcus aureus [5] (setting [15]) was “Growth” throughout. Moreover, the “Observations of growth, inhibition … of growth” value in the assay with Staphylococcus aureus [5] (setting [16]), with Staphylococcus aureus [5] (setting [17]), with Pseudomonas aeruginosa [6] (setting [18]), in the assay with Pseudomonas aeruginosa [6] (setting [19]), in the assay on Pseudomonas aeruginosa [6] (setting [20]) and in the assay on Pseudomonas aeruginosa [6] (setting [21]) was “Growth” each time. In addition, the “Observations of growth, inhibition … of growth” value in the assay with Escherichia coli [7] (setting [22]), with Escherichia coli [7] (setting [23]), in the assay on Escherichia coli [7] (setting [24]) and in the assay with Escherichia coli [7] (setting [25]) was “Growth” in each case.
